In US10597387B2, “Methods to treat lymphoplasmacytic lymphoma” (Dana-Farber Cancer Institute, Inc., priority 2013, dated 2020):

What was measured:
Erk1 = Erk1 (Homo sapiens (Human), UniProt P27361); assay: KiNativ kinase profiling; type: binding; conditions: Lys2, A375 cells, read-out: inhibition of kinase labeling
MARK1, MARK2 = assay: KiNativ kinase profiling; type: binding, Homo sapiens; conditions: Lys1, 1 μM, A375 cells
AurA = AurA (Homo sapiens (Human), UniProt O14965); assay: KiNativ kinase profiling; type: binding; conditions: Lys2, A375 cells, read-out: inhibition of kinase labeling
MAP2K1 = MAP2K1 (Homo sapiens (Human), UniProt Q02750); assay: KiNativ kinase profiling; type: binding; conditions: Lys2, A375 cells, read-out: inhibition of kinase labeling
Sequence of MAP2K1 (Q02750 whole entry): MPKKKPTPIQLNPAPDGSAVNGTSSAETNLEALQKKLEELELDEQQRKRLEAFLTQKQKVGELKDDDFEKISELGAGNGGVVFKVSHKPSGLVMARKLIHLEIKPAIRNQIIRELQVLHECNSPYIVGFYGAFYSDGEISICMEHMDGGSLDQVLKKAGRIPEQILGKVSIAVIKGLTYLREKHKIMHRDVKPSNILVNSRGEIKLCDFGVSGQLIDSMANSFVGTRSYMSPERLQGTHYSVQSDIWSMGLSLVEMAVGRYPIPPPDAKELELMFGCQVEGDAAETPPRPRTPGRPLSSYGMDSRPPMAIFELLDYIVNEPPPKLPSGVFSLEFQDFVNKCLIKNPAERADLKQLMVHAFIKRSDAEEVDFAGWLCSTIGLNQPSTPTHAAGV

AMPKa1, AMPKa2 = assay: KiNativ kinase profiling; type: binding, Homo sapiens; conditions: Lys1, 1 μM, A375 cells
MARK2, MARK3 = assay: KiNativ kinase profiling; type: binding, Homo sapiens; conditions: Lys2, 1 μM, A375 cells
DNAPK = DNAPK (Homo sapiens (Human), UniProt P78527); assay: KiNativ kinase profiling; type: binding; conditions: ATP, A375 cells, read-out: inhibition of kinase labeling
ROCK1, ROCK2 = assay: KiNativ kinase profiling; type: binding, Homo sapiens; conditions: Lys2, 1 μM, A375 cells
BTK = BTK (Homo sapiens (Human), UniProt Q06187); assay: Invitrogen Select Screening kinase assay; type: biochemical; conditions: in vitro
From the text: The in vitro activity of the compounds described herein in inhibiting TAK1, HCK, and other kinases were obtained using an Invitrogen Select Screening assay as known in the art. The IC50 values determined from this assay are shown below.

PIP4K2A = PIP4K2A (Homo sapiens (Human), UniProt P48426); assay: KiNativ kinase profiling; type: binding; conditions: ATP, A375 cells, read-out: inhibition of kinase labeling
Sequence of PIP4K2A (P48426 whole entry): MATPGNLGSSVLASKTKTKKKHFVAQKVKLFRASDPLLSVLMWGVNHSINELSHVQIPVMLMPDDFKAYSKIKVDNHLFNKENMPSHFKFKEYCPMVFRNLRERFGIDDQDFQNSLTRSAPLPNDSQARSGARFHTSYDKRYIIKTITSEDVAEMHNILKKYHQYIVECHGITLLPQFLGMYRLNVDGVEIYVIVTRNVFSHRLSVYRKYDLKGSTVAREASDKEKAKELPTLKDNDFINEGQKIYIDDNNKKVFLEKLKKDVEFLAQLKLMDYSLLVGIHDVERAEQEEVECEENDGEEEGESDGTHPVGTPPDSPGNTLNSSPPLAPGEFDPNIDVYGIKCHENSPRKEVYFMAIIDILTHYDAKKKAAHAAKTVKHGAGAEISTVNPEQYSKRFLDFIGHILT

HPK1 = HPK1 (Homo sapiens (Human), UniProt Q92918); assay: KiNativ kinase profiling; type: binding; conditions: Lys1, A375 cells, read-out: inhibition of kinase labeling
Erk2 = Erk2 (Homo sapiens (Human), UniProt P28482); assay: KiNativ kinase profiling; type: binding; conditions: Lys2, A375 cells, read-out: inhibition of kinase labeling
Sequence of Erk2 (P28482 whole entry): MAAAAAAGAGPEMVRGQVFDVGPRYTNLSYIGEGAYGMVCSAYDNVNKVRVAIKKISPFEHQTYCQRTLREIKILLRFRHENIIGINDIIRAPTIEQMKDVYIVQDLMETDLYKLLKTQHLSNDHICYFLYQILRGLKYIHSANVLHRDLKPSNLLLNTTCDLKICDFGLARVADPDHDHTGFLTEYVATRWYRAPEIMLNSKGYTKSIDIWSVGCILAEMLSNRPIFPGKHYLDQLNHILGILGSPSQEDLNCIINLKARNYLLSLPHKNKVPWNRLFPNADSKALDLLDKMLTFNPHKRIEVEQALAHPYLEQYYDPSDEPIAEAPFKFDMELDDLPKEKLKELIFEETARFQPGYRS

TEC = TEC (Homo sapiens (Human), UniProt P42680); assay: KiNativ kinase profiling; type: binding; conditions: Activation Loop, A375 cells, read-out: inhibition of kinase labeling
ZAP70 = ZAP70 (Homo sapiens (Human), UniProt P43403); assay: KiNativ kinase profiling; type: binding; conditions: Activation Loop, A375 cells, read-out: inhibition of kinase labeling
ULK3 = ULK3 (Homo sapiens (Human), UniProt Q6PHR2); assay: KiNativ kinase profiling; type: binding; conditions: Lys1, A375 cells, read-out: inhibition of kinase labeling
MAP3K2, MAP3K3 = assay: KiNativ kinase profiling; type: binding, Homo sapiens; conditions: Lys2, 1 μM, A375 cells
[1] = test system: CaMK2a, CaMK2b, CaMK2d, CaMK2g; assay: KiNativ kinase profiling; type: binding, Homo sapiens; conditions: Lys2, 1 μM, A375 cells
LKB1 = LKB1 (Homo sapiens (Human), UniProt Q15831); assay: KiNativ kinase profiling; type: binding; conditions: Lys2, A375 cells, read-out: inhibition of kinase labeling
CaMK2d = CaMK2d (Homo sapiens (Human), UniProt Q13557); assay: KiNativ kinase profiling; type: binding; conditions: Lys1, A375 cells, read-out: inhibition of kinase labeling
Sequence of CaMK2d (Q13557 whole entry, the tested form may be a part): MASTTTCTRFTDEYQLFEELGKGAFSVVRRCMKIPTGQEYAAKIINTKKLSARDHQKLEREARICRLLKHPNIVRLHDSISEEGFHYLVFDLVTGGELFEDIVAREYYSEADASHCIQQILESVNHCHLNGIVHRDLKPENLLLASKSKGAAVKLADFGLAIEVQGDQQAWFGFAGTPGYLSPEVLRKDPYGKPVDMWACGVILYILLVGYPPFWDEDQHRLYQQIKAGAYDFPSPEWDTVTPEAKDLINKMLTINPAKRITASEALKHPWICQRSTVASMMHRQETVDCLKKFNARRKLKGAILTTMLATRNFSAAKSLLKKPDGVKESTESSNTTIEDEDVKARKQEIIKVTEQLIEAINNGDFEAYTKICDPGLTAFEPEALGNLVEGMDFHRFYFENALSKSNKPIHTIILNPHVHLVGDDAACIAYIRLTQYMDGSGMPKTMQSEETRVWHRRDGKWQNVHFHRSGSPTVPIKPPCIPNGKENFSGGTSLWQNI

JAK1 = JAK1 (Homo sapiens (Human), UniProt P23458); assay: KiNativ kinase profiling; type: binding; conditions: Protein Kinase Domain, A375 cells, read-out: inhibition of kinase labeling
RSK1 domain1 = RSK1 domain1 (Homo sapiens (Human), UniProt Q15418); assay: KiNativ kinase profiling; type: binding; conditions: Lys2, A375 cells, read-out: inhibition of kinase labeling
LCK = LCK (Homo sapiens (Human), UniProt P06239); assay: KiNativ kinase profiling; type: binding; conditions: Activation Loop, A375 cells, read-out: inhibition of kinase labeling
FGR = FGR (Homo sapiens (Human), UniProt P09769); assay: KiNativ kinase profiling; type: binding; conditions: Activation Loop, A375 cells, read-out: inhibition of kinase labeling
eEF2K = eEF2K (Homo sapiens (Human), UniProt O00418); assay: KiNativ kinase profiling; type: binding; conditions: ATP, A375 cells, read-out: inhibition of kinase labeling
Sequence of eEF2K (O00418 whole entry): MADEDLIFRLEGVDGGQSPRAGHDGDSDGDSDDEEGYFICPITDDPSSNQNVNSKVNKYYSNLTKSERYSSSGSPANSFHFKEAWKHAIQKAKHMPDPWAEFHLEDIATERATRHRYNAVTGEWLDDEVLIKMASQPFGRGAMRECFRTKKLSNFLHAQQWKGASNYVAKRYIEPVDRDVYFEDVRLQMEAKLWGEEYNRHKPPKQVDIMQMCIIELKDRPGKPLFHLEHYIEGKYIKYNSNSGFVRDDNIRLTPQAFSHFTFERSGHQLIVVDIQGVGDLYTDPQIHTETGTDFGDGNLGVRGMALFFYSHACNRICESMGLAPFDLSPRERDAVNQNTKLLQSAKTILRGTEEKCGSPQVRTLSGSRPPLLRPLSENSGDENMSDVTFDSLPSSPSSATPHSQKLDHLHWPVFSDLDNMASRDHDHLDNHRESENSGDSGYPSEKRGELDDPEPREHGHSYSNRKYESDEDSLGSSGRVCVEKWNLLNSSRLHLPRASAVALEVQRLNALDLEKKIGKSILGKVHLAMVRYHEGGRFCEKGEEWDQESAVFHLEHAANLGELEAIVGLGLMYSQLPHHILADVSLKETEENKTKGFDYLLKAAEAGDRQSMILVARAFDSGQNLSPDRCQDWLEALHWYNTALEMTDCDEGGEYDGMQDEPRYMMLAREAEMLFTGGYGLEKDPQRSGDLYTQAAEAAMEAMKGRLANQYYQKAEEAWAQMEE

FRAP = FRAP (Homo sapiens (Human), UniProt P42345); assay: KiNativ kinase profiling; type: binding; conditions: ATP, A375 cells, read-out: inhibition of kinase labeling
RSK2 domain2 = RSK2 domain2 (Homo sapiens (Human), UniProt P51812); assay: KiNativ kinase profiling; type: binding; conditions: Lys2, A375 cells, read-out: inhibition of kinase labeling
CK1g1 = CK1g1 (Homo sapiens (Human), UniProt Q9HCP0); assay: KiNativ kinase profiling; type: binding; conditions: Lys2, A375 cells, read-out: inhibition of kinase labeling
Sequence of CK1g1 (Q9HCP0 whole entry): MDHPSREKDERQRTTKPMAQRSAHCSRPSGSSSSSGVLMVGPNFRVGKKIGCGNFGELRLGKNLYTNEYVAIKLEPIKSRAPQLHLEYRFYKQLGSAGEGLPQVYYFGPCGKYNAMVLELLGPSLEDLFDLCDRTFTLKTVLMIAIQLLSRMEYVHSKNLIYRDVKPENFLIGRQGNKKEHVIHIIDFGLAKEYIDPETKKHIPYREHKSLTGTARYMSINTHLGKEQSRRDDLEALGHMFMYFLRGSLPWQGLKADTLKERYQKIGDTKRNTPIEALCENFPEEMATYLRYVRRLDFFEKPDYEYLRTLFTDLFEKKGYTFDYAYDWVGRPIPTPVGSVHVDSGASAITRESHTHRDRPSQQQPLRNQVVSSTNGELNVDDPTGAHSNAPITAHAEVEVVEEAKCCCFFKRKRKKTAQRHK

GCK = GCK (Homo sapiens (Human), UniProt Q12851); assay: KiNativ kinase profiling; type: binding; conditions: Lys2, A375 cells, read-out: inhibition of kinase labeling
PIP5K3 = PIP5K3 (Homo sapiens (Human), UniProt Q9Y2I7); assay: KiNativ kinase profiling; type: binding; conditions: ATP, A375 cells, read-out: inhibition of kinase labeling
FYN, SRC, YES = assay: KiNativ kinase profiling; type: binding, Homo sapiens; conditions: Activation Loop, 1 μM, A375 cells
CDK11, CDK8 = assay: KiNativ kinase profiling; type: binding, Homo sapiens; conditions: Lys2, 1 μM, A375 cells
p70S6K = p70S6K (Homo sapiens (Human), UniProt P23443); assay: KiNativ kinase profiling; type: binding; conditions: Lys2, A375 cells, read-out: inhibition of kinase labeling
p38a = p38a (Homo sapiens (Human), UniProt Q16539); assay: KiNativ kinase profiling; type: binding; conditions: Protein Kinase Domain, A375 cells, read-out: inhibition of kinase labeling
RSK2 domain1 = RSK2 domain1 (Homo sapiens (Human), UniProt P51812); assay: KiNativ kinase profiling; type: binding; conditions: Lys2, A375 cells, read-out: inhibition of kinase labeling
NDR2 = NDR2 (Homo sapiens (Human), UniProt Q9Y2H1); assay: KiNativ kinase profiling; type: binding; conditions: Lys2, A375 cells, read-out: inhibition of kinase labeling
Sequence of NDR2 (Q9Y2H1 whole entry): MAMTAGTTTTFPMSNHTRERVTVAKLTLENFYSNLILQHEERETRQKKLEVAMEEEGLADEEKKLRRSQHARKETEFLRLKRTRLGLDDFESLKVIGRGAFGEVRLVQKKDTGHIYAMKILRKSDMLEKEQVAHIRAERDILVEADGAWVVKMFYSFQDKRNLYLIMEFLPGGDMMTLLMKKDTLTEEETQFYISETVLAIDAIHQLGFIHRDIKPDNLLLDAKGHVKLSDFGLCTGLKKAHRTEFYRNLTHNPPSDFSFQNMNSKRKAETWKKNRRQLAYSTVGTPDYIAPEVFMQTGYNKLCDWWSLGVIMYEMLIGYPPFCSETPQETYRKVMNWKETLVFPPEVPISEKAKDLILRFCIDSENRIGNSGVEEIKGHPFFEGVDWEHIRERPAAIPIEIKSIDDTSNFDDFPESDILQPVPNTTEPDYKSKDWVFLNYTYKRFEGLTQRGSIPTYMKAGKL

ZAK = ZAK (Homo sapiens (Human), UniProt Q9NYL2); assay: KiNativ kinase profiling; type: binding
Sequence of ZAK (Q9NYL2 whole entry): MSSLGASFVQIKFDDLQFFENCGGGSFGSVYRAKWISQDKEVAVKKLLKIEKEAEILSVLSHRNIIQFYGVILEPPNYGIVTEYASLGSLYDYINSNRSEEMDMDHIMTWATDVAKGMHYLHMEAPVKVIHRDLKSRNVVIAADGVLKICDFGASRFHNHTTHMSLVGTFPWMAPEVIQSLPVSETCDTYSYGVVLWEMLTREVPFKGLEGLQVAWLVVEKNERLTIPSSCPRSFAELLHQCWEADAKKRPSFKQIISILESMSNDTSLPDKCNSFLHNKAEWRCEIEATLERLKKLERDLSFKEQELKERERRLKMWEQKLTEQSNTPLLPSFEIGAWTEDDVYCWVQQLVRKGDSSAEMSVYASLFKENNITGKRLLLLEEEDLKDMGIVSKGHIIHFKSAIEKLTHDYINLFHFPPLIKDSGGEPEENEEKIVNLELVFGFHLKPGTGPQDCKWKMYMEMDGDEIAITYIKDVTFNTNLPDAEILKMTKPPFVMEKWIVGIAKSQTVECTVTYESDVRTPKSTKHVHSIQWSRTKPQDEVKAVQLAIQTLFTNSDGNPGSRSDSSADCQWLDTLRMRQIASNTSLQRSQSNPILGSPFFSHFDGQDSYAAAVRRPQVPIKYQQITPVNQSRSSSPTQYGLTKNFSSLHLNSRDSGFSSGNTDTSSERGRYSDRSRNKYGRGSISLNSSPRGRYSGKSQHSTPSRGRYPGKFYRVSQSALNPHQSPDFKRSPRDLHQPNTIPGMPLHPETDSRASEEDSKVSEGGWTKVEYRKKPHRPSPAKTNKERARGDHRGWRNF

IRAK4 = IRAK4 (Homo sapiens (Human), UniProt Q9NWZ3); assay: KiNativ kinase profiling; type: binding; conditions: Lys2, A375 cells, read-out: inhibition of kinase labeling
Sequence of IRAK4 (Q9NWZ3 whole entry): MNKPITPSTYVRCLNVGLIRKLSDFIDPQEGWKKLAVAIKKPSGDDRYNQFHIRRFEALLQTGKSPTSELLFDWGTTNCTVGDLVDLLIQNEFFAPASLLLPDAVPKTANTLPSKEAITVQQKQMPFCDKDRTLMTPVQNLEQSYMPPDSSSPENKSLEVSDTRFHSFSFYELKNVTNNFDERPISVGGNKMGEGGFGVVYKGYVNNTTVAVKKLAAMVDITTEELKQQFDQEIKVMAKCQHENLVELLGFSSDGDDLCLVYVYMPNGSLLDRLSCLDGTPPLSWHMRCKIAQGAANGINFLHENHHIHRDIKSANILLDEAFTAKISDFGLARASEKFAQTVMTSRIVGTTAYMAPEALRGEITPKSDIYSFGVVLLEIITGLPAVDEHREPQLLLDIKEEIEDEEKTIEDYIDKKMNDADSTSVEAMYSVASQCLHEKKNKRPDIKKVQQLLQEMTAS

PKD2 = PKD2 (Homo sapiens (Human), UniProt Q9BZL6); assay: KiNativ kinase profiling; type: binding; conditions: Lys1, A375 cells, read-out: inhibition of kinase labeling
SLK = SLK (Homo sapiens (Human), UniProt Q9H2G2); assay: KiNativ kinase profiling; type: binding; conditions: Lys2, A375 cells, read-out: inhibition of kinase labeling

Sequence of Erk1 (P27361 whole entry): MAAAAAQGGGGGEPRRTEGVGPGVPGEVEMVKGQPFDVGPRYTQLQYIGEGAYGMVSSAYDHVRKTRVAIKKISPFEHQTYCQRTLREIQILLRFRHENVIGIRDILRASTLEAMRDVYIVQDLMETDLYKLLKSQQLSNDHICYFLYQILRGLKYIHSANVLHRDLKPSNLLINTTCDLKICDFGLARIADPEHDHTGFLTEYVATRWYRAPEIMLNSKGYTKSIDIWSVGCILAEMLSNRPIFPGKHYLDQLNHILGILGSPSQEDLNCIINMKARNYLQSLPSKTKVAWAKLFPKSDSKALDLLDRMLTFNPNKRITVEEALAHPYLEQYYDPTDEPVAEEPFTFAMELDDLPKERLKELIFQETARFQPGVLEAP

With `Cc1ccc(C(=O)Nc2cccc(C(C)(C)C#N)c2)cc1NC(=O)c1cncc(-c2cccs2)c1` [I-6, N-(5-((3-(2-cyanopropan-2-yl)phenyl)carbamoyl)-2-methylphenyl)-5-(thiophen-2-yl)nicotinamide] the inhibition at 1 µM (Erk1) was -3%, the “inhibition of kinase labeling” value (MARK1, MARK2) was −4.9% and the inhibition at 1 µM (AurA) was -21.6%. The inhibition at 1 µM (MAP2K1) was 10.8%, the “inhibition of kinase labeling” value (AMPKa1, AMPKa2) was 15.3% and the “inhibition of kinase labeling” value (MARK2, MARK3) was 17.2%. The inhibition at 1 µM (DNAPK) was 4.6%, the “inhibition of kinase labeling” value (ROCK1, ROCK2) was 12.7% and the IC50 (BTK) was 1150 nM. The inhibition at 1 µM (PIP4K2A) was 12.8%, the inhibition at 1 µM (HPK1) was 7.5% and the inhibition at 1 µM (Erk2) was -11%. For the same molecule, the inhibition at 1 µM (TEC) was -28.9%, the inhibition at 1 µM (ZAP70) was 7.5% and the inhibition at 1 µM (ULK3) was -21.5%. The “inhibition of kinase labeling” value (MAP3K2, MAP3K3) was −15.3%, the “inhibition of kinase labeling” value [1] was 0.7% and the inhibition at 1 µM (LKB1) was 4.9%. The inhibition at 1 µM (CaMK2d) was -1.1%, the inhibition at 1 µM (JAK1) was 16.6% and the inhibition at 1 µM (RSK1 domain1) was 33.3%. For the same molecule, the inhibition at 1 µM (LCK) was 82.1%, the inhibition at 1 µM (FGR) was 3.5% and the inhibition at 1 µM (eEF2K) was 12%. For the same molecule, the inhibition at 1 µM (FRAP) was -8.8%, the inhibition at 1 µM (RSK2 domain2) was -15.8% and the inhibition at 1 µM (CK1g1) was 14.4%. The inhibition at 1 µM (GCK) was 21.9%, the inhibition at 1 µM (PIP5K3) was 17.8% and the “inhibition of kinase labeling” value (FYN, SRC, YES) was 55.7%. The “inhibition of kinase labeling” value (CDK11, CDK8) was 20.7%, the inhibition at 1 µM (p70S6K) was 7.4% and the inhibition at 1 µM (p38a) was 85.1%. For the same molecule, the inhibition at 1 µM (RSK2 domain1) was 5%, the inhibition at 1 µM (NDR2) was -12.5% and the “inhibition of kinase labeling” value (ZAK; Lys1, 1 μM, A375 cells) was >95%. The inhibition at 1 µM (ZAK; Lys1, A375 cells, read-out: inhibition of kinase labeling) was > 95%, the inhibition at 1 µM (IRAK4) was -1.4% and the inhibition at 1 µM (PKD2) was -17.8%. The inhibition at 1 µM (SLK) was -19.5%.
